Where “and” joins values, the source holds several entries; their conditions need not be identical. Equal entries are not always repeated.
What was measured:
PC-3 cells [1] = assay: Cell growth assay (5-day course); format: cell-based, human; conditions: PC-3, 4 µM; for Relative proliferation rate / optical density: replicates
DU145 cells [2] = assay: Cell growth assay (5-day course); format: cell-based, human; conditions: DU145, 2 μM
22Rv1 cells [3] = assay: Cell growth assay (5-day course); format: cell-based, human; conditions: 22Rv1, 0.5 µM
PC-3 cells [4] = assay: Migration assay (transwell); format: cell-based, human; conditions: PC-3; 2 µM; replicates
DU145 cells [5] = assay: Migration assay (transwell); format: cell-based, human; conditions: DU145, 2 μM, replicates
22Rv1 cells [6] = assay: Migration assay (transwell); format: cell-based, human; conditions: 22Rv1, 0.5 μM, replicates
PC-3 cells [7] = assay: Apoptosis assay (Annexin V-APC/PI flow cytometry); format: cell-based, human; conditions: PC-3; 2 µM; replicates
DU145 cells [8] = assay: Apoptosis assay (Annexin V-APC/PI flow cytometry); format: cell-based, human; conditions: DU145, 2 μM, replicates
22Rv1 cells [9] = assay: Apoptosis assay (Annexin V-APC/PI flow cytometry); format: cell-based, human; conditions: 22Rv1, 0.5 μM, replicates
PC-3 cells [10] = assay: Cell cycle assay (PI flow cytometry); format: cell-based, human; conditions: PC-3, 2 µM, replicates
DU145 cells [11] = assay: Cell cycle assay (PI flow cytometry); format: cell-based, human; conditions: DU145, 2 μM, replicates
22Rv1 cells [12] = assay: Cell cycle assay (PI flow cytometry); format: cell-based, human; conditions: 22Rv1, 0.5 μM, replicates
22Rv1 cells [13] = assay: Anti-proliferation activity assay (CCK8, 72 h); format: cell-based, human; conditions: 22Rv1; for Relative proliferation rate (%) / optical density: replicates
DU145 xenograft = assay: In vivo antitumor activity, DU145 xenograft mouse model; set-up: species or system BALB/c nude mice; conditions: for Body weight (Fig. 7b) / Tumor volume (Fig. 7a): individual mice 1-10
PC-3 cells [14] = assay: Invasion assay (transwell); format: cell-based, human; conditions: PC-3; 2 µM; replicates
DU145 cells [15] = assay: Invasion assay (transwell); format: cell-based, human; conditions: DU145, 2 μM, replicates

Which results are given for `CC(=O)c1c(C)c2cnc(Nc3ccc(N4CCNCC4)cn3)nc2n(C2CCCC2)c1=O` [palbociclib]?
Relative proliferation rate mean (PC-3 cells [1]; day 0): 1; Relative proliferation rate (PC-3 cells [1]; day 0): 1; optical density (PC-3 cells [1]; day 0): 0.261; Relative proliferation rate mean (PC-3 cells [1]; day 1): 1.157; Relative proliferation rate (PC-3 cells [1]; day 1): 1.143 and 1.182 and 1.147; optical density (PC-3 cells [1]; day 1): 0.298 and 0.308 and 0.299; Relative proliferation rate mean (PC-3 cells [1]; day 2): 1.563; Relative proliferation rate (PC-3 cells [1]; day 2): 1.569 and 1.565 and 1.554; optical density (PC-3 cells [1]; day 2): 0.409 and 0.408 and 0.405; Relative proliferation rate mean (PC-3 cells [1]; day 3): 2.215; Relative proliferation rate (PC-3 cells [1]; day 3): 2.206 and 2.244 and 2.194; optical density (PC-3 cells [1]; day 3): 0.575 and 0.585 and 0.572; Relative proliferation rate mean (PC-3 cells [1]; day 4): 4.39; Relative proliferation rate (PC-3 cells [1]; day 4): 4.419 and 4.354 and 4.396; optical density (PC-3 cells [1]; day 4): 1.152 and 1.135 and 1.146; Relative proliferation rate mean (DU145 cells [2]; day 1): 1.596; Relative proliferation rate mean (DU145 cells [2]; day 2): 2.367; Relative proliferation rate mean (DU145 cells [2]; day 3): 5.211; Relative proliferation rate mean (DU145 cells [2]; day 4): 6.975; Relative proliferation rate mean (22Rv1 cells [3]; day 1): 1.1416; Relative proliferation rate mean (22Rv1 cells [3]; day 2): 1.363; Relative proliferation rate mean (22Rv1 cells [3]; day 3): 1.755; Relative proliferation rate mean (22Rv1 cells [3]; day 4): 2.003; Cell migration (cell number) (PC-3 cells [4]): 267 cell number and 257 cell number and 249 cell number; Cell migration (cell number) (DU145 cells [5]): 4289 cell number and 4310 cell number and 4198 cell number; Cell migration (cell number) (22Rv1 cells [6]): 1008 cell number and 1108 cell number and 1169 cell number; Apoptosis (%) (PC-3 cells [7]): 13.98% and 14.78% and 15.2%; Apoptosis (%) (DU145 cells [8]): 16.25% and 14.39% and 12.36%; Apoptosis (%) (22Rv1 cells [9]): 5.82% and 6.41% and 7.27%; Cell cycle percentages ( % ) G0/G1 (PC-3 cells [10]; G0/G1): 84.02% and 87.57% and 88.06%; Cell cycle percentages ( % ) G2/M (PC-3 cells [10]; G2/M): 10.01% and 8.39% and 8.02%; Cell cycle percentages ( % ) S (PC-3 cells [10]; S): 5.97% and 4.04% and 3.92%; Cell cycle percentages ( % ) G0/G1 (DU145 cells [11]): 59.02% and 61.19% and 64.25%; Cell cycle percentages ( % ) G2/M (DU145 cells [11]): 23.03% and 20.58% and 18.04%; Cell cycle percentages ( % ) S (DU145 cells [11]): 17.95% and 18.23% and 19.71%; Cell cycle percentages ( % ) G0/G1 (22Rv1 cells [12]): 79.03% and 81.73% and 83.36%; Cell cycle percentages ( % ) G2/M (22Rv1 cells [12]): 9.98% and 8.76% and 8.18%; Cell cycle percentages ( % ) S (22Rv1 cells [12]): 10.99% and 9.51% and 8.46%; Relative proliferation rate (%) mean (22Rv1 cells [13]; 0.0049 uM): 10.7151%; Relative proliferation rate (%) (22Rv1 cells [13]; 0.0049 uM): 10.6906% and 8.054% and 13.4011%; optical density (22Rv1 cells [13]; 0.0049 uM): 0.944 and 0.959 and 0.937; Relative proliferation rate (%) mean (22Rv1 cells [13]; 0.078 uM): 28.5598%; Relative proliferation rate (%) (22Rv1 cells [13]; 0.078 uM): 28.5714% and 25.4075% and 31.7006%; optical density (22Rv1 cells [13]; 0.078 uM): 0.755 and 0.778 and 0.739; Relative proliferation rate (%) mean (22Rv1 cells [13]; 0.3125 uM): 42.3403%; Relative proliferation rate (%) (22Rv1 cells [13]; 0.3125 uM): 42.3841% and 37.8715% and 46.7652%; optical density (22Rv1 cells [13]; 0.3125 uM): 0.609 and 0.648 and 0.576; Relative proliferation rate (%) mean (22Rv1 cells [13]; 1.25 uM): 63.5644%; Relative proliferation rate (%) (22Rv1 cells [13]; 1.25 uM): 63.5762% and 60.0192% and 67.098%; optical density (22Rv1 cells [13]; 1.25 uM): 0.385 and 0.417 and 0.356; Relative proliferation rate (%) mean (22Rv1 cells [13]; 5 uM): 73.8099%; Relative proliferation rate (%) (22Rv1 cells [13]; 5 uM): 73.6991% and 70.3739% and 77.3567%; optical density (22Rv1 cells [13]; 5 uM): 0.278 and 0.309 and 0.245; Relative proliferation rate (%) mean (22Rv1 cells [13]; 20 uM): 83.6751%; Relative proliferation rate (%) (22Rv1 cells [13]; 20 uM): 83.6329% and 79.9616% and 87.4307%; optical density (22Rv1 cells [13]; 20 uM): 0.173 and 0.209 and 0.136; Relative proliferation rate (%) mean (22Rv1 cells [13]; 80 uM): 92.6404%; Relative proliferation rate (%) (22Rv1 cells [13]; 80 uM): 92.6206% and 87.0566% and 98.244%; optical density (22Rv1 cells [13]; 80 uM): 0.078 and 0.135 and 0.019; antitumor activity (in words) (DU145 xenograft; DU145 xenograft, 100 mg/kg orally once a day, seven weeks): only delayed the tumor growth; Body weight (Fig. 7b) (DU145 xenograft; Day 1): 20.6 and 19.7 and 20.3 (2×) and 19.6 and 19.8 and 20.4 and 20.1 and 21.5 and 21.1; Tumor volume (Fig. 7a) (DU145 xenograft; Day 1, in cm³ (unit assumed)): 0.06799 and 0.07327 and 0.07849 and 0.09349 and 0.07486 and 0.07173 and 0.06955 and 0.08095 and 0.1033 and 0.07176; Body weight (Fig. 7b) (DU145 xenograft; Day 3): 20.9 and 20.1 and 20.5 and 19.9 and 20.3 and 20.7 (2×) and 20.4 and 21.5 (2×); Tumor volume (Fig. 7a) (DU145 xenograft; Day 3): 0.109 (2×) and 0.1112 and 0.1321 and 0.1287 and 0.1049 and 0.09325 and 0.1073 and 0.1517 and 0.1054; Body weight (Fig. 7b) (DU145 xenograft; Day 5): 21.2 and 20.4 and 20.7 (2×) and 20.2 and 20.5 and 20.8 and 21.6 and 21.8 and 20.9; Tumor volume (Fig. 7a) (DU145 xenograft; Day 5, in cm³ (unit assumed)): 0.1433 and 0.1864 and 0.1614 and 0.176 and 0.1543 and 0.1645 and 0.1193 and 0.1528 and 0.2268 and 0.2014; Tumor volume (Fig. 7a) (DU145 xenograft; Day 7, in cm³ (unit assumed)): 0.1784 and 0.235 and 0.2414 and 0.2692 and 0.217 and 0.2962 and 0.1705 and 0.2421 and 0.3416 and 0.2763; Body weight (Fig. 7b) (DU145 xenograft; Day 7, in g (unit assumed)): 21.5 and 20.6 and 21 and 20.5 and 20.7 and 21.1 and 20.9 and 21.9 and 22.1 and 21.2; Body weight (Fig. 7b) (DU145 xenograft; Day 9): 21.7 and 21 and 21.5 (2×) and 20.9 and 21.3 (2×) and 21.2 and 22.3 and 22.5; Tumor volume (Fig. 7a) (DU145 xenograft; Day 9, in cm³ (unit assumed)): 0.239 and 0.3072 and 0.3051 and 0.3239 and 0.2873 and 0.3055 and 0.2456 and 0.3235 and 0.4654 and 0.3489; Body weight (Fig. 7b) (DU145 xenograft; Day 11): 22.1 and 21.4 and 21.9 and 21.2 and 21.6 and 21.7 and 21.5 (2×) and 22.6 and 22.9; Tumor volume (Fig. 7a) (DU145 xenograft; Day 11, in cm³ (unit assumed)): 0.3066 and 0.4081 and 0.3897 and 0.4352 and 0.3512 and 0.3909 and 0.2984 and 0.4401 and 0.56 and 0.4357; Tumor volume (Fig. 7a) (DU145 xenograft; Day 13, in cm³ (unit assumed)): 0.3785 and 0.467 and 0.4591 and 0.5566 and 0.4456 and 0.4658 and 0.368 and 0.5218 and 0.6407 and 0.5062; Body weight (Fig. 7b) (DU145 xenograft; Day 13, in g (unit assumed)): 22.5 and 21.7 and 22.2 and 21.4 and 21.9 and 22.1 and 21.6 and 23.1 and 23.2 and 21.8; Body weight (Fig. 7b) (DU145 xenograft; Day 15): 22.9 and 22 and 22.4 and 21.6 and 22.1 (2×) and 22.5 and 21.7 and 23.3 and 23.5; Tumor volume (Fig. 7a) (DU145 xenograft; Day 15, in cm³ (unit assumed)): 0.4581 and 0.5316 and 0.5555 and 0.6598 and 0.5071 and 0.5543 and 0.4465 and 0.6242 and 0.7718 and 0.6156; Body weight (Fig. 7b) (DU145 xenograft; Day 17): 23.1 (2×) and 22.2 and 22.7 (2×) and 21.9 and 22.4 and 21.6 and 23.7 and 22.3; Tumor volume (Fig. 7a) (DU145 xenograft; Day 17, in cm³ (unit assumed)): 0.5062 and 0.5921 and 0.6502 and 0.7599 and 0.6087 and 0.6352 and 0.4918 and 0.6837 and 0.8676 and 0.6822; Body weight (Fig. 7b) (DU145 xenograft; Day 19): 23.4 (2×) and 22.5 and 23.1 (2×) and 22.3 and 22.8 and 21.9 and 23.9 and 22.6; Tumor volume (Fig. 7a) (DU145 xenograft; Day 19, in cm³ (unit assumed)): 0.5936 and 0.6347 and 0.7034 and 0.8268 and 0.6585 and 0.679 and 0.5363 and 0.7534 and 0.9195 and 0.6727; Tumor weight (Fig. 7c) (DU145 xenograft; reference drug groups, individual mice, in g (unit assumed)): 1.87 and 2.14 and 1.86 and 2.29 and 1.85 and 1.63 and 1.81 and 1.69 and 1.58; Cell invasion (cell number) (PC-3 cells [14]): 1678 cell number and 1789 cell number and 1654 cell number; Cell invasion (cell number) (DU145 cells [15]): 1998 cell number and 2045 cell number and 2102 cell number
